Values after ≈ are worked out from the molar mass of the structure shown. Where two headings read alike, the source gives them in different places.
Tests used:
[1] = system: S. pneumoniae ATCC 700677 MDR; test: microbe, parasite or virus in culture; format: cell-based, Streptococcus pneumoniae; settings: Streptococcus pneumoniae, ATCC700677, 24 h
Procedure, shortened: (§1)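 Twofold broth microdilution in Mueller Hinton broth used compounds from 8 to 0.003 µg mL^−1. Mid-log cultures were added at 5 × 10^5 CFU mL^−1 and incubated for 24 h at 37 °C. MIC was the lowest concentration with no visible growth.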

S. pneumoniae ATCC 33400 = test: microbe, parasite or virus in culture; format: cell-based, Streptococcus pneumoniae; settings: Streptococcus pneumoniae, ATCC33400, 24 h
Procedure, shortened: as §1

Haemolysis assay = format: cell-based; settings: human, read-out: % Human Whole Blood Haemolysis
[2] = 37 °C, 20 µM
[3] = system: S. aureus ATCC 43300 MRSA; test: microbe, parasite or virus in culture; format: cell-based, Staphylococcus aureus; settings: Staphylococcus aureus, 24 h
Procedure, shortened: as §1

in vitro = settings: human, 50% human plasma (pooled, sodium heparin) in PBS, pH 7.4
[4] = In vivo pharmacokinetics in mice; settings: mouse; for concentration at […]: 0.250 h; for concentration at 0.5 h: 0.500 h; for MRT inf: read-out: MRT0-inf; for MRT last: read-out: MRT0-last
Protocol: Performed by WuXi AppTec (Shanghai) Co., Ltd. Seven to 9-week-old male CD1 mice (SLAC Laboratory Animal Co. Ltd., Shanghai, China) weighing 25–35 g were acclimated for approximate 3 days before being used in the study. Animals are group housed during acclimation and in-life study in compliance with the National Research Council 'Guide for the Care and Use of Laboratory Animals.' The animal room environment is controlled (target conditions: temperature 18 to 26 °C, relative humidity 30–70%, 12 h artificial light and 12 h dark) with temperature and relative humidity monitored daily. Animals were deprived of food for approximately 16 h before formulation administration then allowed access to Certified Rodent Diet (Catalogue # M-01F, Shanghai SLAC Laboratory Animal Co. Ltd.) ad libitum 4 h post dosing. Water was autoclaved before being provided to the animals ad libitum. Formulations of compounds were prepared on the morning of the dosing day. The formulation for the IV group was filtered with filter of 0.22 μm before being dosed to animals. After dose formulation preparation, duplicate 50 μL aliquots were removed from each dose formulation for use in dose validation. For each compound studied, three mice were dosed intravenously (IV) administered to each animal via tail vein per facility SOPs using test article formulated in deionised water at 1 mg mL^−1 with a dose volume of 2 mg mL^−1, providing a dose of 2 mg mL^−1 (based on free base concentration). An additional three mice were dosed subcutaneously (SC) administered to each animal via subcutaneous bolus on each animals’ back per facility SOPs using test article formulated in deionised water at 2 mg mL^−1 with a dose volume of 5 mg mL^−1, providing a dose of 10 mg mL^−1. All animals were killed at the last study time point (100% CO2 was introduced into the animal box).
Plasma samples were collected as the following target times after each dose administration: IV Sampling Time points (hours post dosing): 0, 0.083, 0.25, 0.5, 1, 2, 4, 8 and 24. SC Sampling Time points (hours post dosing): 0, 0.25, 0.5, 1, 2, 4, 8 and 24. Approximately 30 μL blood was obtained via submandibular or saphenous vein for the first several time points. For the last time point, samples were collected via cardiac puncture while the mouse was under anaesthesia. All blood samples were transferred into pre-chilled plastic microcentrifuge tubes containing 2 μL of ethylenediaminetetraacetic acid dipotassium salt (K2-EDTA) (0.5 M) as anticoagulant and placed on wet ice until centrifugation. Harvested blood samples were centrifuged within 30 min of collection at 7000 rpm (8546 × g) 4 °C for about 10 min. After centrifugation, plasma was transferred into another pre-labelled and pre-chilled polypropylene microcentrifuge tubes, then quick-frozen over dry ice and stored at −70 ± 10 °C until LC/MSMS analysis.
LC-MS/MS methods for the quantitative determination of the test article in mouse plasma were developed with an internal standard. Benchtop stability of the compound in mouse plasma was determined at mid QC concentrations in triplicate at 0, 2 h at room temperature. The stability was determined using mean peak area ratio of T2/T0 sample. If the mean peak area ratio is within 80%~120%, the test article in the plasma is considered stable for 2 h at room temperature. […] A set of QC samples consists of three concentration levels (low, middle and high). The sample analysis was performed concurrently with a set of calibration standards and two sets of QC samples using the LC-MS/MS method.
Plasma concentration vs. time data from individual animals was analysed by WinNonLin non-compartmental model (Phoenix WinNonlin 6.2.1, Pharsight, Mountain View, CA). Pharmacokinetic parameter C 0, T ½, CL, Vdss, C max, T max, AUC0-last, AUC0-inf, %F, MRT0-last, MRT0-inf and graphs of plasma concentration vs. time profile were derived.

[5] = system: Bacillus subtilis ATCC 6633; test: microbe, parasite or virus in culture; format: cell-based; settings: for MIC: Bacillus subtilis; for Molar excess of Ac2Kaa ligand required to antagonise antibacterial activity: [ligand]/[antibiotic], B. subtilis ATCC 6633, 24 h
[6] = system: Methicillin-sensitive S. aureus ATCC 29213; test: microbe, parasite or virus in culture; format: cell-based, Staphylococcus aureus; settings: Staphylococcus aureus, ATCC 29213 / MSSA
Procedure, shortened: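 Broth microdilution in Mueller Hinton broth: mid-log inocula at 5 × 10^5 CFU mL^−1, twofold compound dilutions 8–0.003 µg mL^−1, 24 h at 37 °C. MIC read as lowest concentration with no visible growth.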

[7] = male, CD1, plasma, 2 mg/kg IV, read-out: Plasma concentration, Mean IV
[8] = male, CD1, plasma, 10 mg/kg SC, read-out: Plasma concentration, Mean SC
[9] = male, CD1, plasma, IV 2 mg kg-1
[10] = male, CD1, plasma, SC 10 mg kg-1

CN[C@H](CC(C)C)C(=O)N[C@H]1C(=O)N[C@@H](CC(N)=O)C(=O)N[C@H]2C(=O)N[C@H]3C(=O)N[C@H](C(=O)N[C@H](C(=O)O)c4cc(O)cc(O)c4-c4cc3ccc4O)[C@H](O)c3ccc(c(Cl)c3)Oc3cc2cc(c3O[C@@H]2O[C@H](CO)[C@@H](O)[C@H](O)[C@H]2O[C@H]2C[C@](C)(N)[C@H](O)[C@H](C)O2)Oc2ccc(cc2Cl)[C@H]1O [Compound 1, Vancomycin]
MIC ([1]; read-out: MIC S. pneumoniae ATCC 700677 MDR, 1% Survanta): 0.5 µg/mL (≈ 0.345 µM) | MIC ([1]; read-out: MIC S. pneumoniae ATCC 700677 MDR, 5% Survanta): 0.5 µg/mL (≈ 0.345 µM) | MIC ([1]; read-out: MIC S. pneumoniae ATCC 700677 MDR, no added Survanta): 0.5 µg/mL (≈ 0.345 µM) | MIC (S. pneumoniae ATCC 33400; read-out: MIC S. pneumoniae ATCC 33400, 1% Survanta): 0.5 µg/mL (≈ 0.345 µM) | MIC (S. pneumoniae ATCC 33400; read-out: MIC S. pneumoniae ATCC 33400, 5% Survanta): 0.5 µg/mL (≈ 0.345 µM) | MIC (S. pneumoniae ATCC 33400; read-out: MIC S. pneumoniae ATCC 33400, no added Survanta): 0.5 µg/mL (≈ 0.345 µM) | hemolysis at 3 h, 25 µg mL-1 (Haemolysis assay; 25 µg mL-1): 0.1% | hemolysis at 3 h, 50 µg mL-1 (Haemolysis assay; 50 µg mL-1): 0.4% | hemolysis at 3 h, 100 µg mL-1 (Haemolysis assay; 100 µg mL-1): 0.3% | hemolysis at 3 h, 200 µg mL-1 (Haemolysis assay; 200 µg mL-1): 0.8% | hemolysis at 3 h, 400 µg mL-1 (Haemolysis assay; 400 µg mL-1): 0.8% | hemolysis at 3 h, 800 µg mL-1 (Haemolysis assay; 800 µg mL-1): 0.8% | hemolysis at 3 h, 1600 µg mL-1 (Haemolysis assay; 1600 µg mL-1): 1.5% | % compound remaining after incubation in 50% human plasma, 0h [2]: 100% | MIC ([3]; read-out: MIC S. aureus ATCC 43300 MRSA, 1% Survanta): 0.5 µg/mL (≈ 0.345 µM) | MIC ([3]; read-out: MIC S. aureus ATCC 43300 MRSA, 5% Survanta): 0.5 µg/mL (≈ 0.345 µM) | MIC ([3]; read-out: MIC S. aureus ATCC 43300 MRSA, no added Survanta): 0.5 µg/mL (≈ 0.345 µM) | remaining at 1 h, 20 µM (in vitro): 100% | remaining at 3 h, 20 µM (in vitro): 87% | remaining at 6 h, 20 µM (in vitro): 91% | remaining at 24 h, 20 µM (in vitro): 63% | bioavailability ([4]; male, CD1, plasma, subcutaneous, SC 10 mg kg-1 vs IV 2 mg kg-1): 70.5% | concentration at 5 min ([4]; male, CD1, plasma, 2 mg/kg IV, 5 min, n=3): 5790 ng/mL | concentration at […] [4, 7]: 3590 ng/mL | concentration at 0.5 h [4, 7]: 1980 ng/mL | concentration at 1 h [4, 7]: 762 ng/mL | concentration at 2 h [4, 7]: 193 ng/mL | concentration at 4 h [4, 7]: 27.5 ng/mL | concentration at […] ([4]; male, CD1, plasma, 10 mg/kg SC, n=3, read-out: Plasma concentration, Mean SC): 10700 ng/mL | concentration at 0.5 h [4, 8]: 9580 ng/mL | concentration at 1 h [4, 8]: 5200 ng/mL | concentration at 2 h [4, 8]: 1270 ng/mL | concentration at 4 h [4, 8]: 137 ng/mL | concentration at 8 h ([4]; male, CD1, plasma, 10 mg/kg SC, 8.00 h): 6.17 ng/mL | AUC(0-inf) [4, 9]: 3240 ng·h/mL | AUC(0-t) [4, 9]: 3210 ng·h/mL | C0 [4, 9]: 7360 ng/mL | clearance [4, 9]: 10.4 mL/min/kg | half-life [4, 9]: 38.4 min | MRT inf [4, 9]: 37.2 min | MRT last [4, 9]: 35.4 min | Vd ([4]; male, CD1, plasma, IV 2 mg kg-1, read-out: Vdss): 0.39 L/kg | AUC(0-inf) [4, 10]: 11400 ng·h/mL | AUC(0-t) [4, 10]: 11400 ng·h/mL | Cmax [4, 10]: 10700 ng/mL | Tmax [4, 10]: 15 min | half-life [4, 10]: 48 min | MRT inf [4, 10]: 59.4 min | MRT last [4, 10]: 58.8 min | AUC0-inf/AUC0-last ([4]; IV 2 mg kg-1): 101% | Tlast ([4]; IV 2 mg kg-1): 4 h | AUC0-inf/AUC0-last ([4]; SC 10 mg kg-1): 100% | Tlast ([4]; SC 10 mg kg-1): 8 h | MIC ([5]; ATCC6633): 0.25 µg/mL (≈ 0.173 µM) | MIC ([5]; ATCC6633, read-out: Ac2Kaa concentration required to neutralise MIC activity): 6.25 µg/mL (≈ 4.31 µM) | Molar excess of Ac2Kaa ligand required to antagonise antibacterial activity [5]: 100 | Molar excess of Ac2Kaa ligand required to antagonise antibacterial activity ([5]; listed as Vancomycin 1): 96 | MIC ([6]; read-out: MIC MSSA): 1 µg/mL (≈ 0.69 µM) | MIC ([6]; read-out: MIC S. aureus ATCC29213 MSSA, NBS): 1 µg/mL (≈ 0.69 µM) | MIC ([6]; read-out: MIC S. aureus ATCC29213 MSSA, PP): 1 µg/mL (≈ 0.69 µM) | MIC ([6]; read-out: MIC S. aureus ATCC29213 MSSA, PS): 2 µg/mL (≈ 1.38 µM) | MIC ([6]; read-out: MIC S. aureus ATCC29213 MSSA, PS+P-80): 1 to 2 µg/mL (≈ 0.69 to 1.38 µM)
